Test [1] deals with T1, human 5-HT2AR (Homo sapiens, UniProt P28223).
T1 construct: expressed in transfected cells; host or cells: HEK293
The experiment in a line: HTRF-based IP1 accumulation assay (5-HT2AR antagonistic effect). The test is classed as cell-based. The settings on record: HEK293 cells overexpressing human 5-HT2AR; serotonin at EC80. In a few lines:
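HEK293 cells stably overexpressing human 5-HT2AR were pre-incubated with compound (top 10 μM, serial dilutions, LiCl buffer) 10 min at room temperature, then stimulated with EC80 serotonin 30 min at 37 °C. IP1 accumulation was read by HTRF; IC50s came from activity normalized to serotonin and IP1 controls.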

Test [2] deals with T2, mGluR5 (Homo sapiens, UniProt P41594).
T2 construct: expressed in transfected cells; host or cells: HEK293
The test can be described thus: Fluorescence-based Ca2+ mobilization assay. The test is classed as cell-based. The settings on record: HEK293 cells overexpressing mGluR5; L-glutamate at EC80. In a few lines: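 HEK293 cells stably overexpressing mGluR5, dye-loaded 60 min at 37 °C, then preincubated with compound 30 min at room temperature in the dark. Ca2+ response to L-glutamate at EC80 read on FLIPR for 2 min. Signal normalised to glutamate (100%) and vehicle (0%); IC50 from % inhibition.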
A general note: Calcium flux is commonly read through the fluorescence of an indicator in the cells.

Test [3] concerns physical (tactile) allodynia in spinal nerve ligation model. The test can be described thus: Analgesic efficacy experiment using animal model (Chung model, spinal nerve ligation). The test is classed as in vivo, Sprague-Dawley rats. The settings on record: for inhibition in vivo at 25 mg/kg: 25 mpk; for inhibition in vivo at 100 mg/kg: 100 mpk. As for the experimental part:
The Chung model (spinal nerve ligation model) is a representative animal model to study neuropathic pain and is widely accepted as a gold standard for an animal pain model by global pharmaceutical companies around the world.
In this experiment, male Sprague-Dawley rats (100-120 g) purchased from Koatech (Pyeongtaek-si, Gyeonggi-do) were used. Rats were kept in a room maintained at constant temperature and humidity with a 12 hour light-dark cycle. Rats were allowed to eat and drink freely during the experiment.
For the Chung surgery, rats were anesthetized by isoflurane inhalation and the left lumbar nerves L5 and L6 were tightly tied with a suture thread (6-0 silk thread) at the end of the dorsal ganglion and at a front of an entrance to the sciatic nerve according to the article (Kim and Chung (1992), Pain 50(3):355-63). After suturing the incision, the rats were recovered for 2 weeks in the controlled maintenance room to induce physical allodynia in the left hind paw of the rat. To measure physical (tactile) allodynia, the rats were placed in a cage with a wire mesh on the bottom. Stimuli of increasing intensity (using the von Frey filaments in a range of 0.41 to 15.8 g) were placed on the plantar surface on the side of the nerve injury. The stimulus intensity at which the pain response (abrupt lifting, licking or sucking of the foot) was induced was recorded while applying gradual increment of stimuli. As described in the study of Chaplan et al. (1994) (Chaplan et al. (1994) J. Neurosci. Methods 53(1):55-63), the paw withdrawal threshold (PWT) was determined by increasing or decreasing continuous stimulus intensity, and the result was analyzed by applying Dixon's up-down method. Only rats showing no behavior dysfunction (e.g., feet dragging or dropping) were selected and included in the study, and the PWT of the rats used was 3.16 g or less.
After measuring the degree of basic reaction before drug injection, each compound and solvent were injected by oral administration (12.5-100 mg/kg), and the measurement was repeated at regular time intervals (60 and 120 minutes) after the drug was injected.
The experimenter conducted the PWT measurement in a blind condition not knowing which rat was administered with which drug. The control group was administered with gabapentin (65 mg/kg, intraperitoneal administration), and was randomly mixed during the measurement. Statistical analysis was performed on the measured pain response threshold by calculating the reversal rate (% reversal) from pain in Equation 1 below. […] Pain reversal rate (% reversal)=[(PWT after drug administration)−(PWT before drug administration)]*100/[(15 g, Estimated PWT in normal animals)−(PWT before drug administration)] [Equation 1]
The PWT used in this time is a value obtained by multiplying the gram, the unit of “force” measure, by 10,000, and taking the logarithm, which is a method generally used in academia.
Each experiment consisted of the compound group, the solvent group of the compound and the gabapentin (GBP) group as positive control group. As solvent of the compound, 0.5% HPMC (hydroxypropylmethyl cellulose) was used.

Where [4] appears, read: rat, oral, 50 mpk, 1 h, read-out: % reversal (1 h).
Setting [5] is: rat, oral, 50 mpk, 2 h, read-out: % reversal (2 h).
[6] abbreviates: rat, oral, 1 h, read-out: % reversal (1 h).
[7] abbreviates: rat, oral, 2 h, read-out: % reversal (2 h).
Setting [8] is: Rattus norvegicus, po, 1 h, read-out: % reversal (1 h).
The mark [9] stands for this setting: Rattus norvegicus, po, 2 h, read-out: % reversal (2 h).

Where two headings read alike, the source gives them in different places. A value given as a limit tells only on which side of the number the result lay.

T1 sequence (P28223 whole entry): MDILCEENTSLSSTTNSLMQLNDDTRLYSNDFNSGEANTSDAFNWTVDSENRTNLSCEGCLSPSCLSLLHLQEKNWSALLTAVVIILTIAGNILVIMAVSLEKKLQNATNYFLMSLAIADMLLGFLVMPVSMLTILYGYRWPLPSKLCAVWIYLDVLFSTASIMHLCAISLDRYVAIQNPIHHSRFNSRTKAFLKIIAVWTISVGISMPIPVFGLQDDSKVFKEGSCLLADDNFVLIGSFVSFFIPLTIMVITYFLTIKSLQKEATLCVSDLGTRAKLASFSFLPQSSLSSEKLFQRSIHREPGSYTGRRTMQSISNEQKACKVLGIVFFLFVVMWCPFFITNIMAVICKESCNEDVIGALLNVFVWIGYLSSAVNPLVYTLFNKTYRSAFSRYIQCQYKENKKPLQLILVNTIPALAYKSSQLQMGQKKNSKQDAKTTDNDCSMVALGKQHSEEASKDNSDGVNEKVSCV
T2 sequence (P41594 21-1212): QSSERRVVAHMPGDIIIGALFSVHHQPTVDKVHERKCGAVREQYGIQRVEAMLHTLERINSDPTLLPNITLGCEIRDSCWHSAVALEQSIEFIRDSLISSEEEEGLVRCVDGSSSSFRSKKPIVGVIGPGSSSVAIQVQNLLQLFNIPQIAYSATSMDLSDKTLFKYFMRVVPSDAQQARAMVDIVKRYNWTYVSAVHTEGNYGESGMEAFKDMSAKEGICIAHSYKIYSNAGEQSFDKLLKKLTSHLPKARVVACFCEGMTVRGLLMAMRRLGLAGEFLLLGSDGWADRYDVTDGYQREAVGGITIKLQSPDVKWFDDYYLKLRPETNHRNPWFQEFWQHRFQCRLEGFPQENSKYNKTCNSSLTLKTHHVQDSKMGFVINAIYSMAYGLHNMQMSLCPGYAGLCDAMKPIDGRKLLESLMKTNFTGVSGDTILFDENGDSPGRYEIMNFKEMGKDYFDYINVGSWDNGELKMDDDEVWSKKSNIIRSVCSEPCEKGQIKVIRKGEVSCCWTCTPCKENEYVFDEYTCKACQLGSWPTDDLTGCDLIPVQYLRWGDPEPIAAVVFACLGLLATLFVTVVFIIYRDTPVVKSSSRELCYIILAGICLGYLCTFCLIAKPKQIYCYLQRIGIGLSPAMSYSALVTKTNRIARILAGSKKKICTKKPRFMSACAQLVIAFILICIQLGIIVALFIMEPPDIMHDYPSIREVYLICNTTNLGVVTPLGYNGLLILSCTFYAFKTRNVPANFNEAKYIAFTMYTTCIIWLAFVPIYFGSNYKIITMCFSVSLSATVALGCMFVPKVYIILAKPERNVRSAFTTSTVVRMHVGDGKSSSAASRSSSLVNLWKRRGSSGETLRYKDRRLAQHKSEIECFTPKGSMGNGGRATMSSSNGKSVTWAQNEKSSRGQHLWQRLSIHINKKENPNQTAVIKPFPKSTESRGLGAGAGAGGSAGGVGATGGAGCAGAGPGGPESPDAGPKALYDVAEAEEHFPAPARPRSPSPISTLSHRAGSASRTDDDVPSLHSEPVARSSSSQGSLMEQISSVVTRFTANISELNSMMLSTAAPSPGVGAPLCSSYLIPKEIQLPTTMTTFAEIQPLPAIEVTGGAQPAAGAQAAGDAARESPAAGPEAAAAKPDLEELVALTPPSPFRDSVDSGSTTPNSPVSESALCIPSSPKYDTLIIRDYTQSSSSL

Consider `O=C(NCC1CCOCC1)c1ccc(C#Cc2ccccc2F)cc1` [Example 27, 4-((2-fluorophenyl)ethynyl)-N-((tetrahydro-2H-pyran-4-yl)methyl)benzamide], for which the IC50 in test [1] was 100 to 500 nM; in test [2], less than 100 nM. Moreover, the values for the inhibition in vivo at 50 mg/kg in test [3] (setting [4]) and in test [3] (setting [5]) were 70.3% and 66.3%, respectively.

Take `O=C(NCC1CCO1)c1ccc(C#Cc2ccccc2F)cc1` (stereo not shown) [Example 58, 4-((2-fluorophenyl)ethynyl)-N-(oxetan-2-ylmethyl)benzamide]: the IC50 in test [1] and in test [2] was 100 to 500 nM each time. Further, the inhibition in vivo at 25 mg/kg was found to be 61.5% in test [3] (setting [6]) and 28.3% in test [3] (setting [7]).

On to `CC(C)NC1(CNC(=O)c2ccc(C#Cc3ccccc3F)cc2)CCCCC1` [Example 25, 4-((2-fluorophenyl)ethynyl)-N-((1-(isopropylamino)cyclohexyl)methyl)benzamide], for which the IC50 in test [1] is less than 100 nM; in test [2], 100 to 500 nM. Moreover, the inhibition in vivo at 25 mg/kg is 36.5% in test [3] (setting [6]) and 36.6% in test [3] (setting [7]).

With `CCC1(CNC(=O)c2ccc(C#Cc3ccccc3F)cc2)COC1` [Example 72, N-((3-ethyloxetan-3-yl)methyl)-4-((2-fluorophenyl)ethynyl)benzamide], the 50% inhibitory concentration (IC50) is 100 to 500 nM in test [1] and less than 100 nM in test [2]. The inhibition in vivo at 50 mg/kg in test [3] (setting [4]) stood at 41.9%; in test [3] (setting [5]), 71.8%.

As for `O=C(NCC1(NC2CC2)CCOCC1)c1ccc(C#Cc2ccccc2F)cc1` [Example 22, N-((4-(cyclopropylamino)tetrahydro-2H-pyran-4-yl)methyl)-4-((2-fluorophenyl)ethynyl)benzamide], the IC50 in test [1] was less than 100 nM; in test [2] it was 100 to 500 nM. In addition, the inhibition in vivo at 50 mg/kg in test [3] (setting [4]) was 19.3%; in test [3] (setting [5]), 77.5%.

Regarding `O=C(NCC1(NC2CC2)CCCCC1)c1ccc(C#Cc2ccccc2F)cc1` [Example 20, N-((1-(cyclopropylamino)cyclohexyl)methyl)-4-((2-fluorophenyl)ethynyl)benzamide], the results for the IC50 in test [1] and in test [2] were less than 100 nM and 500 to 1000 nM, respectively. Further, the figures for the inhibition in vivo at 100 mg/kg in test [3] (setting [6]) and in test [3] (setting [7]) were 35% and 67%, respectively.

For the molecule `O=C(NCC1CC(F)(F)C1)c1ccc(C#Cc2ccncc2)cc1` [Example 89, N-((3,3-difluorocyclobutyl)methyl)-4-(pyridin-4-ylethynyl)benzamide], the half-maximal inhibitory concentration (IC50) in test [1] is 100 to 500 nM; in test [2] it was less than 100 nM. For the same molecule, the inhibition in vivo at 50 mg/kg in test [3] (setting [4]) is 111%; in test [3] (setting [5]), 103%.

For the molecule `CC1(CNC(=O)c2ccc(C#Cc3ccccc3F)cc2)COC1` [Example 52, 4-((2-fluorophenyl)ethynyl)-N-((3-methyloxetan-3-yl)methyl)benzamide], the concentration for half-maximal inhibition (IC50) in test [1] was 100 to 500 nM; in test [2], less than 100 nM. Moreover, the figures for the inhibition in vivo at 100 mg/kg in test [3] (setting [6]) and in test [3] (setting [7]) were 90.8% and 101%, respectively.

On to `COC1(CNC(=O)c2ccc(C#Cc3ccccc3F)cc2)CCOCC1` [Example 66, 4-((2-fluorophenyl)ethynyl)-N-((4-methoxytetrahydro-2H-pyran-4-yl)methyl)benzamide], for which the IC50 in test [1] was 500 to 1000 nM; in test [2] it was less than 100 nM. Further, the inhibition in vivo at 25 mg/kg stood at 64.1% in test [3] (setting [6]) and 43.2% in test [3] (setting [7]).

For `CC(NC(=O)c1ccc(C#Cc2ccccc2F)cc1)C1CCOCC1` (stereo not shown) [Example 42, 4-((2-fluorophenyl)ethynyl)-N-(1-(tetrahydro-2H-pyran-4-yl)ethyl)benzamide], the IC50 in test [1] is 100 to 500 nM; in test [2] it was less than 100 nM. Moreover, the inhibition in vivo at 100 mg/kg in test [3] (setting [6]) is 82.9%; in test [3] (setting [7]), 88.1%.

Regarding `O=C(NCC1(NC2CC2)CCCCCC1)c1ccc(C#Cc2ccncc2F)cc1` [Example 16, N-((1-(cyclopropylamino)cycloheptyl)methyl)-4-((3-fluoropyridin-4-yl)ethynyl)benzamide], the IC50 in test [1] lay in the range of 100 to 500 nM; in test [2], 500 to 1000 nM. The inhibition in vivo at 50 mg/kg in test [3] (setting [4]) was 61%; in test [3] (setting [5]), 95.8%.

For `O=C(NCC1(NC2CC2)CCCCCC1)c1ccc(C#Cc2ccccc2F)cc1` [Example 12, N-((1-(cyclopropylamino)cycloheptyl)methyl)-4-((2-fluorophenyl)ethynyl)benzamide], the IC50 in test [1] and in test [2] was 100 to 500 nM each time. Also, the figures for the inhibition in vivo at 100 mg/kg in test [3] (setting [6]) and in test [3] (setting [7]) were 53.8% and 74.8%, respectively.

As to `O=C(NCC1CCC(F)(F)CC1)c1ccc(C#Cc2ccncc2)cc1` [Example 88, N-((4,4-difluorocyclohexyl)methyl)-4-(pyridin-4-ylethynyl)benzamide], the 50% inhibitory concentration (IC50) is 500 to 1000 nM in test [1] and less than 100 nM in test [2]. Moreover, the values for the inhibition in vivo at 50 mg/kg in test [3] (setting [4]) and in test [3] (setting [5]) were 97.8% and 110%, respectively.

Consider `O=C(NCC1(NC2CC2)CCC1)c1ccc(C#Cc2ccncc2)cc1F` [Example 10, N-((1-(cyclopropylamino)cyclobutyl)methyl)-2-fluoro-4-(pyridin-4-ylethynyl)benzamide], for which the IC50 in test [1] and in test [2] was 100 to 500 nM each time. For the same molecule, the inhibition in vivo at 50 mg/kg in test [3] (setting [4]) worked out at 44.9%; in test [3] (setting [5]) it was 36.1%.

Take `O=C(NCC1(NC2CC2)CCC1)c1ccc(C#Cc2ccncc2)cc1` [Example 5, N-((1-(cyclopropylamino)cyclobutyl)methyl)-4-(pyridin-4-ylethynyl)benzamide]: the IC50 in test [1] and in test [2] was 100 to 500 nM each time. Besides, the results for the inhibition in vivo at 50 mg/kg in test [3] (setting [4]) and in test [3] (setting [5]) were 43.1% and 34.4%, respectively.

Consider `O=C(NC[C@H]1CCOC1)c1ccc(C#Cc2ccccc2F)cc1` [Example 69, (R)-4-((2-fluorophenyl)ethynyl)-N-((tetrahydrofuran-3-yl)methyl)benzamide], for which the IC50 in test [1] was in the range of 500 to 1000 nM; in test [2] it was 100 to 500 nM. Also, the inhibition in vivo at 50 mg/kg in test [3] (setting [8]) and in test [3] (setting [9]) was 110% in each case.

In the case of `O=C(NCC1COCCO1)c1ccc(C#Cc2ccccc2F)cc1` (stereo not shown) [Example 51, N-((1,4-dioxan-2-yl)methyl)-4-((2-fluorophenyl)ethynyl)benzamide], the IC50 is 100 to 500 nM in test [1] and less than 100 nM in test [2]. Further, the inhibition in vivo at 50 mg/kg in test [3] (setting [4]) came out at 5.97%; in test [3] (setting [5]), 14.5%.

As for `O=C(NCC1(CO)CCCCC1)c1ccc(C#Cc2ccccc2F)cc1` [Example 37, 4-((2-fluorophenyl)ethynyl)-N-((1-(hydroxymethyl)cyclohexyl)methyl)benzamide], the IC50 in test [1] is 100 to 500 nM; in test [2] it was less than 100 nM. Further, the inhibition in vivo at 100 mg/kg in test [3] (setting [6]) was 37.1%; in test [3] (setting [7]), 18.8%.

On to `COC1(CNC(=O)c2ccc(C#Cc3ccccc3F)cc2)CCCCC1` [Example 65, 4-((2-fluorophenyl)ethynyl)-N-((1-methoxycyclohexyl)methyl)benzamide], for which the IC50 in test [1] was 500 to 1000 nM; in test [2], less than 100 nM. For the same molecule, the results for the inhibition in vivo at 50 mg/kg in test [3] (setting [8]) and in test [3] (setting [9]) were 34% and 80.8%, respectively.

The term IC50 denotes the concentration that inhibits the measured activity by half. High values mean weaker potency in that assay, low ones greater potency in that assay.

Source of the values: patent US12435051B2, “Dual modulator of mGluR5 and 5-HT2A receptor, and use thereof” (Vivozon Inc., priority 2020, dated 2025).
